Legend:
[1] = system: Candida albicans; experiment: Antimicrobial (antifungal) screening by agar dilution, Candida albicans; format: cell-based; conditions: after 10, 20, 40 and 60 minutes at all dilutions 1:100, 1:200, 1:400, 1:800
Method: (§1) The antibacterial properties of the synthesized compound ethyl 2-[9-(2-hydroxyquinolin-3-yl)-1,8-dioxo-3,4,9,10-tetrahydroacridine-10-yl]-acetate were studied by the method of agar dilution. Test solutions of each compound was prepared in concentration of 1% using dimethylformamide as a solvent then they are diluted in physiological solution to obtain the final experimental dilutions 1:100, 1:200, 1:400, 1:800. The effect of these substances are compared with furacillin in a controllable study. The testing microbes used were gram positive bacteria Staphylococcus aureus, gram negative bacteria Pseudomonas aeruginosa and Escherichia coli and Candida albicans fungus. The experiments used for this survey were meat-pentonlu agar (EPA) for cultivation of bacteria and Saburo environment for the fungus. Each experiment used 1 mL of test solution on each plate […]. Two drops of emulsified with microbes feel were added. All experimental samples were taken from the agar after 10, 20, 40, 60 minutes in the environment on the basis of Patrk planted. The bacteria were cultivated at a temperature of 37° C. for 1 day and the mushroom was kept in a thermostat for […] at a temperature of 28° C. Then results were checked.

[2] = system: Escherichia coli; experiment: Antimicrobial screening by agar dilution, Escherichia coli; format: cell-based; conditions: after 10, 20, 40 and 60 minutes at all dilutions 1:100, 1:200, 1:400, 1:800
Method: as §1

[3] = system: Staphylococcus aureus; experiment: Antimicrobial screening by agar dilution, Staphylococcus aureus; format: cell-based; conditions: after 10, 20, 40 and 60 minutes at all dilutions 1:100, 1:200, 1:400, 1:800
Method: as §1

[4] = system: Pseudomonas aeruginosa; experiment: Antimicrobial screening by agar dilution, Pseudomonas aeruginosa; format: cell-based; conditions: after 10, 20, 40 and 60 minutes at all dilutions 1:100, 1:200, 1:400, 1:800
Method: as §1

Question: Which melting point does the source give for `CCOC(=O)CN1C2=C(C(=O)CCC2)C(c2cc3ccccc3nc2O)C2=C1CCCC2=O` [ethyl 2-[9-(2-hydroxyquinolin-3-yl)-1,8-dioxo-3,4,9,10-tetrahydroacridine-10-yl]-acetate] here?
Answer: 228 °C

Question: And the inhibition activity [1]?
Answer: highest inhibition activity

Question: And the inhibition activity [2]?
Answer: highest inhibition activity

Question: And the inhibition activity [3]?
Answer: highest inhibition activity

Question: And the inhibition activity [4]?
Answer: highest inhibition activity

Reference: US11970454B1, “Ethyl-2[9-2(2-hydroxyquinolin-3-yl)-1,8-dioxo-3,4,9,10-tetrahydroacridine-10-yl]-acetate as an antimicrobial compound” (KING FAISAL UNIVERSITY, priority 2023, dated 2024)
